# In article PMC9781101, “A High-Throughput Fluorescence Polarization-Based Assay for the SH2 Domain of STAT4” (Methods and Protocols, 2022):
# Read-outs that look alike come from different tables or passages of the source. Non-standard residues stand in square brackets, D forms with d. Residues, ends and D or L forms follow the SMILES beside them. No end group written: not given here. *: point of attachment. 5FAM = O=C1OC2(c3ccc(O)cc3Oc3cc(O)ccc32)c2ccc(C(=O)*)cc21; pY = N[C@@H](Cc1ccc(OP(=O)(O)O)cc1)C(=O)O
# B1: STAT4 SH2 (protein)
# chain: LPLWIDGYVMGFVSKEKERLLLKDKMPGTFLLRFSESHLGGITFTWVDHSESGEVRFHSVEPYNKGRLSALPFADILRDYKVIMAENIPENPLKYLYPDIPK
# Columns and labels:
# [1] = molecular target: T1, STAT4 SH2 domain (human STAT4 amino acids 136 to 705) (Homo sapiens, UniProt Q14765); experiment: Fluorescence polarization direct binding assay, labelled phosphopeptides to truncated STAT4; details: for fold lower affinity for STAT4 than 5-CF-GpYLPQNID: ratio of Kd values
# T1 sequence (Q14765 136-705): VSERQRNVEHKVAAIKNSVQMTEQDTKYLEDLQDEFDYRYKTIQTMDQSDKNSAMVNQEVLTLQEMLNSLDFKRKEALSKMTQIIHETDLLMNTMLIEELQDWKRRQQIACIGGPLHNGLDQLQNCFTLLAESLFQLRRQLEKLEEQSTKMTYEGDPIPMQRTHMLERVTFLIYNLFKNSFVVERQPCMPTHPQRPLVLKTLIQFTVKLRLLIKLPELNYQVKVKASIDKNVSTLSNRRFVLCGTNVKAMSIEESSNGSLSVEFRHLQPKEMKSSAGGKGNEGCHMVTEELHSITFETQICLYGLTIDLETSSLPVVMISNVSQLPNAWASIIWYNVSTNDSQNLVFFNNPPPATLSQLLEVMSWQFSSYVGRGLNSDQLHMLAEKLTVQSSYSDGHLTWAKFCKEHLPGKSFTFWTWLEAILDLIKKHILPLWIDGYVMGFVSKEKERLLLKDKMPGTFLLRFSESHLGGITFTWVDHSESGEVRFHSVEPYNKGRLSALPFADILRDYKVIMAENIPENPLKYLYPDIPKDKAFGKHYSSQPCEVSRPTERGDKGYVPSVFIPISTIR
# Method: (§1) Binding of fluorescent-labelled peptides to the truncated STAT4 protein was analysed using an Infinite F500 plate reader (Tecan) as previously published for STAT5b [12]. Unless otherwise stated, FP assays were performed in a buffer consisting of 10 mM Tris/HCl, 50 mM NaCl, 1 mM EDTA, 0.1% (v/v) NP-40 substitute, 2% (v/v) DMSO and 1 mM DTT at a pH of 8.0. All steps were carried out at room temperature. For the binding assays shown in Figure 1, Figure 2 and Figure 3, the prediluted STAT4 protein was incubated for 1 h before addition of the fluorophore-labelled peptide, to mimic the incubation period with test compounds. For the inhibition assay shown in Figure 4, STAT4 was incubated with unlabelled peptide for 1 h before addition of the fluorophore-labelled peptide (final STAT4 concentration: 33 nM). Fluorescence polarization was read 1 h after addition of the labelled peptide, in non-treated black 384-well microplates (Corning). Fluorescent-labelled peptides were used at a final concentration of 10 nM unless otherwise stated. Binding and inhibition curves were plotted using OriginPro 2019 software (OriginLab). Fluorescence polarization values were normalized by subtracting the FP values of the wells containing the fluorophore-labelled peptides only. […] IC50 values from three independent experiments were used to calculate an average value and the corresponding standard deviation. IC50 values were converted to inhibition constants (Ki) using the published equation [20], with average values calculated as for IC50 values.
# [2] = molecular target: T1, STAT4 SH2 domain (human STAT4 amino acids 136 to 705); experiment: Fluorescence polarization competitive inhibition of binding between 5-CF-GpYLPQNID and STAT4; details: for inhibition: 33 nM STAT4, 10 nM probe; for IC50: SD
# Method: as §1
# [3] = molecular target: STAT3 (amino acids 127 to 722) (Mus musculus, UniProt P42227); experiment: Fluorescence polarization direct binding assay, STAT3; design: species or system murine
# Sequence of STAT3 (amino acids 127 to 722) (P42227 127-722): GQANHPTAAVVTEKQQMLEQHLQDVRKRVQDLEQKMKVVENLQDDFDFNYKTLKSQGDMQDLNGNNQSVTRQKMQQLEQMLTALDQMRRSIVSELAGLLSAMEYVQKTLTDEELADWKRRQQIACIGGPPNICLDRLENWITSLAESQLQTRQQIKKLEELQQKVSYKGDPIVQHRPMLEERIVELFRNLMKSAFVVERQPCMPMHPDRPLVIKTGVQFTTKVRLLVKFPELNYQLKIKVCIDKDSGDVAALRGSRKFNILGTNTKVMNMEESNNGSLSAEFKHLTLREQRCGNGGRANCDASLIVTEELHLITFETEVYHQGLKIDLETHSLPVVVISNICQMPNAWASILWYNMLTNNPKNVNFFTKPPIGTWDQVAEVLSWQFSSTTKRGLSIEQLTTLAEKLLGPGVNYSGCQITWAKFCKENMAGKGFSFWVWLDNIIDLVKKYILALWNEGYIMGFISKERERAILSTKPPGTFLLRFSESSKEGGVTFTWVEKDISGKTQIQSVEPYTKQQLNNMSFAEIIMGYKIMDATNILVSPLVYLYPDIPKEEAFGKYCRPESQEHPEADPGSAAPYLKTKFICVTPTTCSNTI
# [4] = molecular target: T2, STAT6 (amino acids 110 to 651) (Homo sapiens, UniProt P42226); experiment: Fluorescence polarization direct binding assay, STAT6; details: FP, 10 nM labelled peptide; Figure S1
# T2 sequence (P42226 110-651): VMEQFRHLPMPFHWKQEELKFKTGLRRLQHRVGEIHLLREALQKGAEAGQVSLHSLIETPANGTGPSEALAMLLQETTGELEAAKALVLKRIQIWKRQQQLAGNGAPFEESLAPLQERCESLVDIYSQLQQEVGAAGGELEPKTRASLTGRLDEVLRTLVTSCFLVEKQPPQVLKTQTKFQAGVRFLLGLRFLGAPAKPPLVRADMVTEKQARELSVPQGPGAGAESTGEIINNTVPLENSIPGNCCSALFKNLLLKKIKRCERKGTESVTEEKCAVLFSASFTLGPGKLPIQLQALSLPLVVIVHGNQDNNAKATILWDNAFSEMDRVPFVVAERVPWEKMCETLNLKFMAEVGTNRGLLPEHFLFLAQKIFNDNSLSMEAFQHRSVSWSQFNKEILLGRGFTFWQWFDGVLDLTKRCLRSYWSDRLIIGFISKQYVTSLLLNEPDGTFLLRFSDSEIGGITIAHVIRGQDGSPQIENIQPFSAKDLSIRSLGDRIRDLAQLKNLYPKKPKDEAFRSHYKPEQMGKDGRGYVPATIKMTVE
# STAT4 R598A = details: FP, Figure 1b, compared with STAT4 wild-type
# Method: Binding of fluorescent-labelled peptides to the truncated STAT4 protein was analysed using an Infinite F500 plate reader (Tecan) as previously published for STAT5b [12]. Unless otherwise stated, FP assays were performed in a buffer consisting of 10 mM Tris/HCl, 50 mM NaCl, 1 mM EDTA, 0.1% (v/v) NP-40 substitute, 2% (v/v) DMSO and 1 mM DTT at a pH of 8.0. All steps were carried out at room temperature. For the binding assays shown in Figure 1, Figure 2 and Figure 3, the prediluted STAT4 protein was incubated for 1 h before addition of the fluorophore-labelled peptide, to mimic the incubation period with test compounds. For the inhibition assay shown in Figure 4, STAT4 was incubated with unlabelled peptide for 1 h before addition of the fluorophore-labelled peptide (final STAT4 concentration: 33 nM). Fluorescence polarization was read 1 h after addition of the labelled peptide, in non-treated black 384-well microplates (Corning). Fluorescent-labelled peptides were used at a final concentration of 10 nM unless otherwise stated. […] Fluorescence polarization values were normalized by subtracting the FP values of the wells containing the fluorophore-labelled peptides only. […] IC50 values were converted to inhibition constants (Ki) using the published equation [20], with average values calculated as for IC50 values.
# STAT4 = details: cited from earlier work; for IC50: read-out: IC50 against STAT4 in an ELISA
# EPO receptor peptide = EPO receptor peptide (Homo sapiens, UniProt P19235, phosphotyrosine, 5-carboxyfluorescein); experiment: fluorescence polarization
# gp130 peptide = gp130 peptide (Homo sapiens, UniProt P40189, phosphotyrosine, 5-carboxyfluorescein); experiment: fluorescence polarization
# IFN-γ receptor peptide = molecular target: T3, IFN-γ receptor peptide (Homo sapiens, UniProt P15260, also: 5-carboxyfluorescein, site not given here); experiment: fluorescence polarization
# T3 chain: G[pY]DKPHVL
molecule,measurement,setting,value
CC[C@H](C)[C@H](NC(=O)[C@H](CC(C)C)NC(=O)[C@H](CC(=O)O)NC(=O)[C@H](CCC(N)=O)NC(=O)[C@H](Cc1c[nH]c2ccccc12)NC(=O)[C@@H]1CCCN1C(=O)[C@@H](NC(=O)[C@H](Cc1ccc(OP(=O)(O)O)cc1)NC(=O)CNC(=O)c1ccc2c(c1)C(=O)OC21c2ccc(O)cc2Oc2cc(O)ccc21)C(C)C)C(=O)O [5-CF-GpYVPWQDLI] (5FAM-G[pY]VPWQDLI-OH),Kd,[1]; SD,93 ± 8 nM
same,fold lower affinity for STAT4 than 5-CF-GpYLPQNID,[1]; 10 nM labelled peptide,3 fold
GpYEEIP,inhibition,"[2]; read-out: Inhibition at 40 µM, 40 µM unlabelled peptide (highest concentration tested)",37 ± 4%
CC(=O)N[C@@H](Cc1ccc(OP(=O)(O)O)cc1)C(=O)N[C@@H](CC(C)C)C(=O)N1CCC[C@H]1C(=O)N[C@@H](CCC(N)=O)C(=O)N[C@H](C(=O)N[C@H](C(N)=O)C(C)C)[C@@H](C)O [Ac-pYLPQTV-NH2],IC50,[2],1270 ± 100 nM
same,fold less active than Ac-GpYLPQNID,[2]; ratio of IC50 values,2.6 fold
CC(C)C[C@H](NC(=O)[C@@H](NC(=O)[C@H](Cc1c[nH]cn1)NC(=O)[C@@H]1CCCN1C(=O)[C@H](CCCCN)NC(=O)[C@H](CC(=O)O)NC(=O)[C@H](Cc1ccc(OP(=O)(O)O)cc1)NC(=O)CN)C(C)C)C(=O)O [GpYDKPHVL] (H-G[pY]DKPHVL-OH),IC50,[2],31400 ± 6700 nM
CC(C)C[C@H](NC(=O)[C@@H](NC(=O)[C@H](Cc1c[nH]cn1)NC(=O)[C@@H]1CCCN1C(=O)[C@H](CCCCN)NC(=O)[C@H](CC(=O)O)NC(=O)[C@H](Cc1ccc(OP(=O)(O)O)cc1)NC(=O)CNC(=O)c1ccc2c(c1)C(=O)OC21c2ccc(O)cc2Oc2cc(O)ccc21)C(C)C)C(=O)O [5-CF-GpYDKPHVL] (5FAM-G[pY]DKPHVL-OH),Kd,[1]; SD,1230 ± 284 nM
CC(C)C[C@H](NC(=O)[C@H](Cc1ccc(OP(=O)(O)O)cc1)NC(=O)CNC(=O)c1ccc2c(c1)C(=O)OC21c2ccc(O)cc2Oc2cc(O)ccc21)C(=O)N[C@H](C(=O)N[C@@H](CC(C)C)C(=O)N[C@@H](CC(=O)O)C(=O)N[C@@H](CCCCN)C(=O)N[C@@H](Cc1c[nH]c2ccccc12)C(=O)O)C(C)C [5-CF-GpYLVLDKW],Kd,[1]; SD,267 ± 6 nM
same,fold lower affinity for STAT4 than 5-CF-GpYLPQNID,[1]; 10 nM labelled peptide,approximately 8 fold
CC[C@H](C)[C@H](NC(=O)[C@H](CC(N)=O)NC(=O)[C@H](CCC(N)=O)NC(=O)[C@@H]1CCCN1C(=O)[C@H](CC(C)C)NC(=O)[C@H](Cc1ccc(OP(=O)(O)O)cc1)NC(=O)CNC(=O)c1ccc2c(c1)C(=O)OC21c2ccc(O)cc2Oc2cc(O)ccc21)C(=O)N[C@@H](CC(=O)O)C(=O)O [5-CF-GpYLPQNID] (5FAM-G[pY]LPQNID-OH),Kd,"[3]; FP, 10 nM labelled peptide, Figure S1, mean ± SD of 3 independent experiments, SD",131 ± 6 nM
same,weaker affinity for STAT3 than for STAT4,[3]; ratio of Kd values STAT3 vs STAT4,fourfold
same,Kd,[4],> 2560 nM
same,binding to STAT4 R598A (in words),STAT4 R598A,almost completely abolished
same,reduction in affinity for STAT4 by 8 h,[1]; 8 h after addition of labelled probe,no more than 35%
same,Kd,[1]; SD,34 ± 4 nM
CC[C@H](C)[C@H](NC(=O)[C@H](CCC(=O)O)NC(=O)[C@H](CCC(=O)O)NC(=O)[C@H](Cc1ccc(OP(=O)(O)O)cc1)NC(=O)CNC(=O)c1ccc2c(c1)C(=O)OC21c2ccc(O)cc2Oc2cc(O)ccc21)C(=O)N1CCC[C@H]1C(=O)O [5-CF-GpYEEIP] (5FAM-G[pY]EEIP-OH),Kd,[1],> 2560 nM
SHEGpYLPQNID,IC50,STAT4,390 nM
5-CF-GPMQSpTPLNG,binding to STAT4 (in words),"[1]; FP, 10 nM labelled peptide",did not bind
CC[C@H](C)[C@H](NC(=O)[C@H](CC(N)=O)NC(=O)[C@H](CO)NC(=O)[C@@H]1CCCN1C(=O)[C@H](CC(C)C)NC(=O)[C@H](Cc1ccc(OP(=O)(O)O)cc1)NC(=O)CNC(=O)c1ccc2c(c1)C(=O)OC21c2ccc(O)cc2Oc2cc(O)ccc21)C(=O)N[C@@H](CC(=O)O)C(=O)O [5-CF-GpYLPSNID] (5FAM-G[pY]LPSNID-OH),Kd,[1]; SD,160 ± 6 nM
CC(C)C[C@H](NC(=O)[C@H](Cc1c[nH]c2ccccc12)NC(=O)[C@H](CCCCN)NC(=O)[C@H](CC(=O)O)NC(=O)[C@H](CC(C)C)NC(=O)[C@@H](NC(=O)[C@H](CC(C)C)NC(=O)[C@H](Cc1ccc(OP(=O)(O)O)cc1)NC(=O)[C@@H](NC(=O)[C@@H](N)CC(=O)O)[C@@H](C)O)C(C)C)C(=O)O [DTpYLVLDKWL] (H-DT[pY]LVLDKWL-OH),IC50,[2],4170 ± 130 nM
CC(C)C[C@H](NC(=O)[C@H](Cc1ccc(OP(=O)(O)O)cc1)NC(=O)CNC(=O)c1ccc2c(c1)C(=O)OC21c2ccc(O)cc2Oc2cc(O)ccc21)C(=O)N1CCC[C@H]1C(=O)N[C@@H](CCC(N)=O)C(=O)N[C@H](C(=O)N[C@H](C(N)=O)C(C)C)[C@@H](C)O [5-CF-GpYLPQTV-NH2] (5FAM-G[pY]LPQTV-NH2),Kd,[1]; SD,82 ± 2 nM
same,fold lower affinity for STAT4 than 5-CF-GpYLPQNID,[1]; 10 nM labelled peptide,2.4 fold
MAGPMQSpTPLNGAKK,inhibition,"[2]; read-out: Inhibition at 40 µM, 40 µM unlabelled peptide, n = 2",2 ± 2%
same,inhibitory effect on STAT4 (in words),[2]; up to 40 µM,no detectable inhibitory effect
CC[C@H](C)[C@H](NC(=O)[C@H](CC(N)=O)NC(=O)[C@H](CCC(N)=O)NC(=O)[C@@H]1CCCN1C(=O)[C@H](CC(C)C)NC(=O)[C@H](Cc1ccc(OP(=O)(O)O)cc1)NC(=O)CNC(C)=O)C(=O)N[C@@H](CC(=O)O)C(=O)O [Ac-GpYLPQNID] (Ac-G[pY]LPQNID-OH),IC50,[2],490 ± 40 nM
same,extrapolated maximum inhibition at infinite peptide concentrations,[2]; extrapolated from inhibition curve,98.4 ± 0.9%
same,inhibition at 40 µM,[2]; read-out: Inhibition at 40 µM,96%
SHEGpYLPWNID,fold less potent against STAT4 than SHEGpYLPQNID in an ELISA,STAT4,2-3 fold
same,IC50,STAT4,930 nM
B1,Kd,EPO receptor peptide,267 nM
same,Kd,gp130 peptide,82 nM
same,Kd,IFN-γ receptor peptide,1230 nM
